# Assays:
# [1] = tested on: Echinochloa crus-galli; assay: Pre-emergence herbicidal evaluation, ECHCG; format: in vivo; details: three weeks after treatment
# Text: (§1) The treated pots are then placed on greenhouse benches, watered and cared for in accordance with conventional greenhouse procedures.
# [2] = tested on: Glycine max; assay: Post-emergence herbicidal evaluation, GLXMA; details: three weeks after treatment
# [3] = tested on: Zea mays; assay: Post-emergence herbicidal evaluation, ZEAMX; details: three weeks after treatment
# [4] = tested on: Amaranthus tuberculatus; assay: Pre-emergence herbicidal evaluation, AMATA; format: in vivo; details: three weeks after treatment
# Text: as §1
# [5] = tested on: Echinochloa crus-galli; assay: Post-emergence herbicidal evaluation, ECHCG; details: three weeks after treatment
# [6] = tested on: Triticum aestivum; assay: Post-emergence herbicidal evaluation, TRZAW; details: three weeks after treatment
# [7] = tested on: Apera spica venti; assay: Pre-emergence herbicidal evaluation, APESV; format: in vivo; details: three weeks after treatment
# Text: as §1
# [8] = tested on: Setaria viridis; assay: Pre-emergence herbicidal evaluation, SETVI; format: in vivo; details: three weeks after treatment
# Text: as §1
# [9] = tested on: Lolium perenne; assay: Pre-emergence herbicidal evaluation, LOLPE; format: in vivo; details: three weeks after treatment
# Text: as §1
# [10] = tested on: Apera spica venti; assay: Post-emergence herbicidal evaluation, APESV; details: three weeks after treatment
# [11] = tested on: Oryza sativum; assay: Post-emergence herbicidal evaluation, ORYSA; details: three weeks after treatment
# [12] = tested on: Alopecurus myosuroides; assay: Pre-emergence herbicidal evaluation, ALOMY; format: in vivo; details: three weeks after treatment
# Text: as §1
# [13] = tested on: Zea mays; assay: Pre-emergence herbicidal evaluation, ZEAMX; format: in vivo; details: three weeks after treatment
# Text: as §1
# [14] = tested on: Oryza sativum; assay: Pre-emergence herbicidal evaluation, ORYSA; format: in vivo; details: three weeks after treatment
# Text: as §1
# [15] = tested on: Setaria viridis; assay: Post-emergence herbicidal evaluation, SETVI; details: three weeks after treatment
# [16] = tested on: Amaranthus tuberculatus; assay: Post-emergence herbicidal evaluation, AMATA; format: in vivo; details: three weeks after treatment
# [17] = tested on: Glycine max; assay: Pre-emergence herbicidal evaluation, GLXMA; format: in vivo; details: three weeks after treatment
# Text: as §1
# [18] = tested on: Alopecurus myosuroides; assay: Post-emergence herbicidal evaluation, ALOMY; details: three weeks after treatment
# [19] = tested on: Lolium perenne; assay: Post-emergence herbicidal evaluation, LOLPE; details: three weeks after treatment
# [20] = tested on: Triticum aestivum; assay: Pre-emergence herbicidal evaluation, TRZAW; format: in vivo; details: three weeks after treatment
# Text: as §1
# [21] = tested on: Galium aparine; assay: Post-emergence herbicidal evaluation, GALAP; details: three weeks after treatment
# [22] = tested on: Hordeum vulgare; assay: Pre-emergence herbicidal evaluation, HORVW; format: in vivo; details: three weeks after treatment
# Text: as §1
# [23] = tested on: Hordeum vulgare; assay: Post-emergence herbicidal evaluation, HORVW; details: three weeks after treatment
compound,measurement,setting,value
CC1=CC(N(C)C(=O)COc2nnc(C(F)(F)F)s2)=CC(C)(C)C1 [Example 3],melting point,,54 to 57 °C
same,phytotoxicity rating ECHCG,[1]; 0.100 kg/ha,6 (6 - Herbicidal effect)
same,phytotoxicity rating ECHCG,[1]; 0.200 kg/ha,8 (8 - Approaching complete kill)
same,phytotoxicity rating ECHCG,[1]; 0.400 kg/ha,8 (8 - Approaching complete kill)
same,phytotoxicity rating ECHCG,[1]; 0.800 kg/ha,9 (9 - Complete kill)
same,phytotoxicity rating GLXMA,[2]; 0.200 kg/ha,2 (2 - Slight effect)
same,phytotoxicity rating GLXMA,[2]; 0.400 kg/ha,4 (4 - Injury)
same,phytotoxicity rating ZEAMX,[3]; 0.200 kg/ha,0 (0 - No effect)
same,phytotoxicity rating ZEAMX,[3]; 0.400 kg/ha,0 (0 - No effect)
same,phytotoxicity rating AMATA,[4]; 0.100 kg/ha,0 (0 - No effect)
same,phytotoxicity rating AMATA,[4]; 0.200 kg/ha,0 (0 - No effect)
same,phytotoxicity rating AMATA,[4]; 0.400 kg/ha,6 (6 - Herbicidal effect)
same,phytotoxicity rating AMATA,[4]; 0.800 kg/ha,8 (8 - Approaching complete kill)
same,phytotoxicity rating ECHCG,[5]; 0.200 kg/ha,1 (1 - Trace effect)
same,phytotoxicity rating ECHCG,[5]; 0.400 kg/ha,4 (4 - Injury)
same,phytotoxicity rating TRZAW,[6]; 0.200 kg/ha,1 (1 - Trace effect)
same,phytotoxicity rating TRZAW,[6]; 0.400 kg/ha,3 (3 - Moderate effect)
same,phytotoxicity rating APESV,[7]; 0.100 kg/ha,3 (3 - Moderate effect)
same,phytotoxicity rating APESV,[7]; 0.200 kg/ha,6 (6 - Herbicidal effect)
same,phytotoxicity rating APESV,[7]; 0.400 kg/ha,8 (8 - Approaching complete kill)
same,phytotoxicity rating APESV,[7]; 0.800 kg/ha,9 (9 - Complete kill)
same,phytotoxicity rating SETVI,[8]; 0.100 kg/ha,6 (6 - Herbicidal effect)
same,phytotoxicity rating SETVI,[8]; 0.200 kg/ha,8 (8 - Approaching complete kill)
same,phytotoxicity rating SETVI,[8]; 0.400 kg/ha,8 (8 - Approaching complete kill)
same,phytotoxicity rating SETVI,[8]; 0.800 kg/ha,9 (9 - Complete kill)
same,phytotoxicity rating LOLPE,[9]; 0.100 kg/ha,3 (3 - Moderate effect)
same,phytotoxicity rating LOLPE,[9]; 0.200 kg/ha,7 (7 - Good herbicidal effect)
same,phytotoxicity rating LOLPE,[9]; 0.400 kg/ha,9 (9 - Complete kill)
same,phytotoxicity rating LOLPE,[9]; 0.800 kg/ha,9 (9 - Complete kill)
same,phytotoxicity rating APESV,[10]; 0.200 kg/ha,6 (6 - Herbicidal effect)
same,phytotoxicity rating APESV,[10]; 0.400 kg/ha,3 (3 - Moderate effect)
same,phytotoxicity rating ORYSA,[11]; 0.200 kg/ha,0 (0 - No effect)
same,phytotoxicity rating ORYSA,[11]; 0.400 kg/ha,2 (2 - Slight effect)
same,phytotoxicity rating ALOMY,[12]; 0.100 kg/ha,6 (6 - Herbicidal effect)
same,phytotoxicity rating ALOMY,[12]; 0.200 kg/ha,8 (8 - Approaching complete kill)
same,phytotoxicity rating ALOMY,[12]; 0.400 kg/ha,8 (8 - Approaching complete kill)
same,phytotoxicity rating ALOMY,[12]; 0.800 kg/ha,9 (9 - Complete kill)
same,phytotoxicity rating ZEAMX,[13]; 0.100 kg/ha,0 (0 - No effect)
same,phytotoxicity rating ZEAMX,[13]; 0.200 kg/ha,1 (1 - Trace effect)
same,phytotoxicity rating ZEAMX,[13]; 0.400 kg/ha,3 (3 - Moderate effect)
same,phytotoxicity rating ZEAMX,[13]; 0.800 kg/ha,7 (7 - Good herbicidal effect)
same,phytotoxicity rating ORYSA,[14]; 0.100 kg/ha,1 (1 - Trace effect)
same,phytotoxicity rating ORYSA,[14]; 0.200 kg/ha,3 (3 - Moderate effect)
same,phytotoxicity rating ORYSA,[14]; 0.400 kg/ha,6 (6 - Herbicidal effect)
same,phytotoxicity rating ORYSA,[14]; 0.800 kg/ha,6 (6 - Herbicidal effect)
same,phytotoxicity rating SETVI,[15]; 0.200 kg/ha,0 (0 - No effect)
same,phytotoxicity rating SETVI,[15]; 0.400 kg/ha,0 (0 - No effect)
same,phytotoxicity rating AMATA,[16]; 0.200 kg/ha,0 (0 - No effect)
same,phytotoxicity rating AMATA,[16]; 0.400 kg/ha,0 (0 - No effect)
same,phytotoxicity rating GLXMA,[17]; 0.100 kg/ha,0 (0 - No effect)
same,phytotoxicity rating GLXMA,[17]; 0.200 kg/ha,0 (0 - No effect)
same,phytotoxicity rating GLXMA,[17]; 0.400 kg/ha,0 (0 - No effect)
same,phytotoxicity rating GLXMA,[17]; 0.800 kg/ha,0 (0 - No effect)
same,phytotoxicity rating ALOMY,[18]; 0.200 kg/ha,4 (4 - Injury)
same,phytotoxicity rating ALOMY,[18]; 0.400 kg/ha,7 (7 - Good herbicidal effect)
same,phytotoxicity rating LOLPE,[19]; 0.200 kg/ha,7 (7 - Good herbicidal effect)
same,phytotoxicity rating LOLPE,[19]; 0.400 kg/ha,7 (7 - Good herbicidal effect)
same,phytotoxicity rating TRZAW,[20]; 0.100 kg/ha,0 (0 - No effect)
same,phytotoxicity rating TRZAW,[20]; 0.200 kg/ha,1 (1 - Trace effect)
same,phytotoxicity rating TRZAW,[20]; 0.400 kg/ha,1 (1 - Trace effect)
same,phytotoxicity rating TRZAW,[20]; 0.800 kg/ha,3 (3 - Moderate effect)
same,phytotoxicity rating GALAP,[21]; 0.200 kg/ha,4 (4 - Injury)
same,phytotoxicity rating GALAP,[21]; 0.400 kg/ha,5 (5 - Definite injury)
same,phytotoxicity rating HORVW,[22]; 0.100 kg/ha,0 (0 - No effect)
same,phytotoxicity rating HORVW,[22]; 0.200 kg/ha,1 (1 - Trace effect)
same,phytotoxicity rating HORVW,[22]; 0.400 kg/ha,1 (1 - Trace effect)
same,phytotoxicity rating HORVW,[22]; 0.800 kg/ha,4 (4 - Injury)
same,phytotoxicity rating HORVW,[23]; 0.200 kg/ha,0 (0 - No effect)
same,phytotoxicity rating HORVW,[23]; 0.400 kg/ha,2 (2 - Slight effect)
